Assay results from ChEMBL document CHEMBL1124634, “Synthesis and antirhinovirus activity of 6-(dimethylamino)-2-(trifluoromethyl)-9-(substituted benzyl)-9H-purines” (J Med Chem, 1989).
pIC50: −log10 of the molar value.

Tests used:
[1] = tested on: Human rhinovirus sp.; assay: Percent inhibitory activity at 8 uM against rhinoviral 3 serotype in a plaque inhibition assay using monolayers of M-HeLa cells; type: functional
[2] = tested on: Human rhinovirus sp.; assay: Percent inhibitory activity at 8 uM against rhinoviral 15 serotype in a plaque inhibition assay using monolayers of M-HeLa cells; type: functional
[3] = tested on: Human rhinovirus sp.; assay: Antiviral activity against rhinoviral-1B serotype in a plaque inhibition assay using monolayers of M-HeLa cells; type: functional, organism-based
[4] = tested on: Human rhinovirus sp.; assay: Percent inhibitory activity at 8 uM against rhinoviral 21 serotype in a plaque inhibition assay using monolayers of M-HeLa cells; type: functional
[5] = tested on: Human rhinovirus sp.; assay: Antiviral activity against rhinoviral 9 serotype in a plaque inhibition assay using monolayers of M-HeLa cells; type: functional, organism-based
[6] = Percent inhibitory activity at 8 uM against rhinoviral 18 serotype in a plaque inhibition assay using monolayers of M-HeLa cells; type: functional, Homo sapiens
[7] = tested on: Human rhinovirus sp.; assay: Percent inhibitory activity at 8 uM against rhinoviral 31 serotype in a plaque inhibition assay using monolayers of M-HeLa cells; type: functional
[8] = tested on: Human rhinovirus sp.; assay: Antiviral activity against rhinoviral 30 serotype in a plaque inhibition assay using monolayers of M-HeLa cells; type: functional, organism-based
[9] = tested on: Human rhinovirus sp.; assay: Antiviral activity against rhinoviral 16 serotype in a plaque inhibition assay using monolayers of M-HeLa cells; type: functional, organism-based
[10] = tested on: Human rhinovirus sp.; assay: Antiviral activity against rhinoviral-1A serotype in a plaque inhibition assay using monolayers of M-HeLa cells; type: functional, organism-based
[11] = tested on: Human rhinovirus sp.; assay: Antiviral activity against rhinoviral 2 serotype in a plaque inhibition assay using monolayers of M-HeLa cells; type: functional, organism-based
[12] = tested on: Human rhinovirus sp.; assay: Percent inhibitory activity at 8 uM against rhinoviral 19s erotype in a plaque inhibition assay using monolayers of M-HeLa cells; type: functional
[13] = tested on: Human rhinovirus sp.; assay: Percent inhibitory activity at 8 uM against rhinoviral 13 serotype in a plaque inhibition assay using monolayers of M-HeLa cells; type: functional
[14] = tested on: Human rhinovirus sp.; assay: Percent inhibitory activity at 8 uM against rhinoviral 29 serotype in a plaque inhibition assay using monolayers of M-HeLa cells; type: functional
[15] = tested on: Human rhinovirus sp.; assay: Antiviral activity against rhinoviral 5 serotype in a plaque inhibition assay using monolayers of M-HeLa cells; type: functional, organism-based
[16] = tested on: Human rhinovirus sp.; assay: Antiviral activity against rhinoviral 8 serotype in a plaque inhibition assay using monolayers of M-HeLa cells; type: functional, organism-based
[17] = tested on: Human rhinovirus sp.; assay: Antiviral activity against rhinoviral 12 serotype in a plaque inhibition assay using monolayers of M-HeLa cells; type: functional, organism-based
[18] = tested on: Human rhinovirus sp.; assay: Percent inhibitory activity at 8 uM against rhinoviral 4 serotype in a plaque inhibition assay using monolayers of M-HeLa cells; type: functional
[19] = tested on: Human rhinovirus sp.; assay: Percent inhibitory activity at 8 uM against rhinoviral 14 serotype in a plaque inhibition assay using monolayers of M-HeLa cells; type: functional
[20] = tested on: Human rhinovirus sp.; assay: Antiviral activity against rhinoviral-19 serotype in a plaque inhibition assay using monolayers of M-HeLa cells; type: functional, organism-based
[21] = tested on: Human rhinovirus sp.; assay: Antiviral activity against rhinoviral 4 serotype in a plaque inhibition assay using monolayers of M-HeLa cells; type: functional, organism-based
[22] = tested on: Human rhinovirus sp.; assay: Antiviral activity against rhinoviral 29 serotype in a plaque inhibition assay using monolayers of M-HeLa cells; type: functional, organism-based
[23] = tested on: Human rhinovirus sp.; assay: Antiviral activity against rhinoviral 15 serotype in a plaque inhibition assay using monolayers of M-HeLa cells; type: functional, organism-based
[24] = tested on: Human rhinovirus sp.; assay: Antiviral activity against rhinoviral 31 serotype in a plaque inhibition assay using monolayers of M-HeLa cells; type: functional, organism-based
[25] = tested on: Human rhinovirus sp.; assay: Antiviral activity against rhinoviral 21 serotype in a plaque inhibition assay using monolayers of M-HeLa cells; type: functional, organism-based
[26] = tested on: Human rhinovirus sp.; assay: Percent inhibitory activity at 8 uM against rhinoviral 30 serotype in a plaque inhibition assay using monolayers of M-HeLa cells; type: functional
[27] = tested on: Human rhinovirus sp.; assay: Antiviral activity against rhinoviral 14 serotype in a plaque inhibition assay using monolayers of M-HeLa cells; type: functional, organism-based
[28] = Percent inhibitory activity at 8 uM against rhinoviral 2 serotype in a plaque inhibition assay using monolayers of M-HeLa cells; type: functional, Homo sapiens
[29] = tested on: Human rhinovirus sp.; assay: Antiviral activity against rhinoviral 18 serotype in a plaque inhibition assay using monolayers of M-HeLa cells; type: functional, organism-based
[30] = tested on: Human rhinovirus sp.; assay: Percent inhibitory activity at 8 uM against rhinoviral 5 serotype in a plaque inhibition assay using monolayers of M-HeLa cells; type: functional
[31] = Antiviral activity against rhinoviral 13 serotype in a plaque inhibition assay using monolayers of M-HeLa cells; type: functional, cell-based; settings: Homo sapiens
[32] = tested on: Human rhinovirus sp.; assay: Antiviral activity against rhinoviral 19 serotype in a plaque inhibition assay using monolayers of M-HeLa cells; type: functional, organism-based
[33] = tested on: Human rhinovirus sp.; assay: Antiviral activity against rhinoviral-18 serotype in a plaque inhibition assay using monolayers of M-HeLa cells; type: functional, organism-based
[34] = tested on: Human rhinovirus sp.; assay: Antiviral activity against rhinoviral 3 serotype in a plaque inhibition assay using monolayers of M-HeLa cells; type: functional, organism-based
[35] = Percent inhibitory activity at 8 uM against rhinoviral 8 serotype in a plaque inhibition assay using monolayers of M-HeLa cells; type: functional, Homo sapiens
[36] = Percent inhibitory activity at 4 uM against rhinoviral-1A serotype in a plaque inhibition assay using monolayers of M-HeLa cells; type: functional, Homo sapiens
[37] = Percent inhibitory activity at 10 uM against rhinoviral 5 serotype in a plaque inhibition assay using monolayers of M-HeLa cells; type: functional, Homo sapiens
[38] = Percent inhibitory activity at 4 uM against rhinoviral 2 serotype in a plaque inhibition assay using monolayers of M-HeLa cells; type: functional, Homo sapiens

Structure (SMILES)	Inhibition [1]	Inhibition [2]	pIC50 [3]	Inhibition [4]	pIC50 [5]	Inhibition [7]	pIC50 [8]	pIC50 [9]	pIC50 [10]	pIC50 [11]	Inhibition [12]	Inhibition [13]	pIC50 [15]	pIC50 [16]	pIC50 [17]	pIC50 [21]	pIC50 [22]	pIC50 [23]	pIC50 [27]	pIC50 [29]	other results
CN(C)c1nc(C(F)(F)F)nc2c1ncn2Cc1ccc(Cl)cc1Cl	17%	10%	6.92	30%	6.03	28%	4.96	6.07	6.24	5.16	40%	20%	< 5.10	5.07	4.96						Inhibition [6]: 32 µM; Inhibition [14]: 15%; Inhibition [18]: 25%; Inhibition [19]: 35%
Cc1cc(Cn2cnc3c(N(C)C)nc(C(F)(F)F)nc32)ccc1Cl	44%		6.92		6.00			6.08	5.85	5.28		13%	< 5.10	< 5.10	5.48	5.12	5.15	5.21	5.10		pIC50 [20]: 5.11; Inhibition [6]: 28 µM; pIC50 [24]: 5.05; pIC50 [25]: 5.20; Inhibition [26]: 31%
CN(C)c1nc(C(F)(F)F)nc2c1ncn2Cc1ccc(F)cc1	35%		7.30	34%	6.06	47%	5.05	5.89	5.89		22%	42%		5.10	5.10	5.42	5.40	5.06	5.15	5.05	Inhibition [28]: 27%; Inhibition [30]: 11%
Cc1ccc(Cn2cnc3c(N(C)C)nc(C(F)(F)F)nc32)cc1C	39%		6.77	16%	6.19		5.09	6.11	5.77	5.30			< 5.10	5.29	5.40	5.22	5.30	5.70	5.18	5.09	pIC50 [31]: < 5.10; pIC50 [24]: 4.89; pIC50 [32]: 5.15
Cc1ccccc1Cn1cnc2c(N(C)C)nc(C(F)(F)F)nc21		14%	6.54	18%	5.72	47%	5.05	5.72	5.10		19%	33%			5.19		5.21				pIC50 [33]: 5.11; pIC50 [34]: 5.12; Inhibition [35]: 44%; Inhibition [18]: 22%; Inhibition [19]: 31%; Inhibition [30]: 40%
CN(C)c1nc(C(F)(F)F)nc2c1ncn2Cc1ccc([N+](=O)[O-])cc1	43%	31%	7.15	28%	5.25	37%		5.82		5.08		13%		5.09	5.10	5.39	5.00		5.07	5.23	pIC50 [32]: 5.06; Inhibition [26]: 28%; Inhibition [36]: 38 µM; Inhibition [37]: 32%
CN(C)c1nc(C(F)(F)F)nc2c1ncn2Cc1ccc(C(F)(F)F)cc1	44%		6.96		5.66			5.92	6.04			22%	< 5.10	< 5.10	5.28	5.22	5.14	5.38	5.15	5.18	pIC50 [24]: 5.22; pIC50 [32]: 5.28; pIC50 [25]: 5.09; Inhibition [26]: 40%; Inhibition [38]: 23 µM
